According to patent publication US20060286630A1, “Posh interacting proteins and related methods” (Proteologics, Inc., priority 2003, published 2006):

Assays:
HBV = assay: Inhibition of HBV production in HepG2.2.15 cells; format: cell-based; conditions: 3 μM, treated every 24 hours for 4 days, FIG. 35 lanes 7 and 8
Experimental: HepG2.2.15 cells were plated on 9 cm dishes and allowed to grow in 8% FCS for 5 days up to 70% confluence. After 5 days, cells were washed twice with PBS and re-supplied with fresh DMEM without FCS. In this medium, cells were treated every 24 hours with the depicted solutions (3 μl solution/11 ml medium) for another 4 days (4 treatments total). After 4 days, medium was collected from each plate, viruses were sedimented and analyzed.
Detection of HBV proteins was performed essentially as described in Paran, N et al (2001) EMBO J 20(16):4443-4453.

HIV-1 [1] = conditions: Cartier et al., 2003, J Biol Chem., 278:35211-9; cited from earlier work
HIV-1 [2] = conditions: H89 50 μM; HeLa SS6 cells transfected with pNLenv-1; VLPs collected twenty minutes after shift from 20° C. to 37° C.
Experimental: HeLa SS6 cells were transfected with pNLenv-1PTAP or pNLenv-1ATAA (L-domain mutant). Eighteen hours post-transfection, cells were transferred to 20° C. for two hours in order to inhibit transport of viral particles from the trans-Golgi (TGN) to the plasma membrane (PM). Subsequently, the PKA inhibitor, H89 (50 μM) (Biosource, Cat. No. PHZ1114) or DMSO were added to the cells and dishes were transferred to 37° C. to initiate transport from the TGN to the PM. Reverse transcriptase activity was assayed from virus-like-particles collected from cell supernatant twenty minutes later.

[3] = tested on: Bacterially expressed recombinant maltose-binding-protein (MBP)-hPOSH [MBP: P0AEX9]

O=C1C=CC(=O)N1c1ccc(OC(F)(F)C(F)F)c(N2C(=O)C=CC2=O)c1 [CAS number 14567-55-4]
HBV production (HBV): inhibit HBV production

Oc1c(Br)cc(Cl)cc1/C=N/c1ccccc1Br [CAS number 414908-38-0]
HBV production (HBV): inhibit HBV production

O=S(=O)(NCCNCC=Cc1ccc(Br)cc1)c1cccc2cnccc12 [H89, N-[2-((Pbromocinnamyl)amino)ethyl]isoquinolinesulfonamide]
HIV-1 release from cells (HIV-1 [1]): able to block HIV-1 release from cells
RT activity of virus-like particles collected from cell supernatant (HIV-1 [2]): complete inhibition

PKA catalytic subunit (PKAc)
in-vitro phosphorylation of MBP-hPOSH by PKA catalytic subunit, immunoblot [3]: POSH is phosphorylated by PKA
